Data as given in patent publication US20260183350A1, “ANTIBIOTIC-RESISTANT BACTERIA” (priority 2022, published 2026).

How the values were obtained:
[1] = test system: NDM-1 Enterobacter cloacae; assay: Carbon utilisation assay; format: cell-based; details: M9 minimal medium, 0.5% (w/v) carbon source
Experimental: (§1) New Delhi Metallo-β-lactamase 1 (NDM-1) Escherichia coli, NDM-1 Klebsiella pneumoniae, and NDM-1 Enterobacter cloacae were isolated from patients with intestinal CRE colonisation from the Imperial College Healthcare NHS Trust via rectal swab (REC ref. 19/LO/0112). The species were assigned by matrix assisted laser desorption ionization-time of flight (MALDI-TOF) mass spectrometry and later confirmed with 16S rRNA gene sequencing. CRE status was determined using X-pert Carba-R PCR detection (Cepheid, Sunnyvale, CA, USA), (Otter, J. A. et al. Detecting carbapenemase-producing Enterobacterales (CPE): an evaluation of an enhanced CPE infection control and screening programme in acute care. J Antimicrob Chemother 75, 2670-2676 (2020)).
(§2) Growth of CRE isolates on sole carbon or nitrogen sources was tested by inoculating each CRE isolate into a minimal medium supplemented with the nutrient of interest. First, CRE isolates were passaged from frozen glycerol stocks on Reasoner's 2A agar (R2A) plates. Cells were then suspended in M9 minimal media to a turbidity of 42% using a Turbidimeter (Biolog Inc.), then diluted a further 1 in 6 to inoculate the carbon or nitrogen utilisation assays. M9 minimal media contained the following (at final concentrations): 22 mM KH2PO4, 42 mM Na2HPO4, 9 mM NaCl, 0.49 mM MgSO4·7H2O, 0.09 mM CaCl2), 0.011 mM FeSO4·7H2O. For the carbon assays the M9 minimal medium was also supplemented with 0.1% (w/v) NH4Cl (as the nitrogen source) and the carbon sources were individually tested at 0.5% (w/v) concentration. For the nitrogen assays the M9 minimal medium was also supplemented with 0.5% (w/v) glucose (as the carbon source) and the nitrogen sources were individually tested at 0.1% (w/v) concentration. Cultures were incubated anaerobically and aerobically in a plate reader and OD600 readings were collected every 15 minutes for 24 hours.
(§3) Growth curves were analysed in Python (v3.6.5) using the AMiGA software (Midani, F. S., Collins, J. & Britton, R. A. AMiGA: Software for Automated Analysis of Microbial Growth Assays. mSystems 6, e0050821 (2021)). Growth of each isolate was measured with 6 wells from 2-3 independent experiments. Growth curves were normalised to the no substrate control using the subtraction method. AMiGA performed Gaussian Process regression to test differential growth between the substrate and the no substrate control. The functional difference in the OD (and its credible interval) was also computed between the substrate and the no substrate control.

[2] = test system: NDM-1 Escherichia coli; assay: Carbon utilisation assay; format: cell-based; details: M9 minimal medium, 0.5% (w/v) carbon source
Experimental: as §1, §2, §3

[3] = test system: NDM-1 Klebsiella pneumoniae; assay: Carbon utilisation assay; format: cell-based; details: M9 minimal medium, 0.5% (w/v) carbon source
Experimental: as §1, §2, §3

[4] = test system: NDM-1 Enterobacter cloacae; assay: Nitrogen utilisation assay; format: cell-based; details: aerobic; M9 minimal medium with glucose, 0.1% (w/v) nitrogen source
Experimental: as §1, §2, §3

[5] = test system: NDM-1 Escherichia coli; assay: Nitrogen utilisation assay; format: cell-based; details: aerobic; M9 minimal medium with glucose, 0.1% (w/v) nitrogen source
Experimental: as §1, §2, §3

[6] = test system: NDM-1 Klebsiella pneumoniae; assay: Nitrogen utilisation assay; format: cell-based; details: aerobic; M9 minimal medium with glucose, 0.1% (w/v) nitrogen source
Experimental: as §1, §2, §3

[7] = test system: NDM-1 Enterobacter cloacae; assay: Nutrient preference assay (nutrient mixture); format: cell-based; details: M9 with […] of each nutrient, up to 24 hours
Experimental: as §1
(§4) CRE isolates were passaged once from frozen glycerol stocks on R2A plates. Cells were suspended in M9 minimal media to a turbidity of 42% using a Turbidimeter (Biolog Inc.), then diluted 1 in 6 to inoculate the nutrient preference assays. M9 minimal media was supplemented with 0.015% of each of the following: L-arabinose, D-fructose, L-fucose, D-galactose, D-glucose, D-mannose, D-ribose, D-xylose, N-acetylglucosamine, D-maltose, sucrose, D-trehalose, L-alanine, L-arginine, L-aspartate, L-glutamate, L-glycine, L-isoleucine, L-leucine, L-lysine, L-methionine, L-phenylalanine, L-proline, L-threonine, L-tryptophan, L-tyrosine, L-valine, uracil, and succinate. Cultures were incubated anaerobically and aerobically in a plate reader and OD600 readings were collected every 15 minutes for 24 hours. Cultures were also incubated anaerobically and aerobically for 24 h and samples were collected at 0, 4, 8, and 24 hours post-inoculation for 1H-NMR spectroscopy. Changes in nutrients and metabolites by CRE isolates was compared to the sterile media control over time using a two-way mixed ANOVA followed by pairwise comparisons with Bonferroni correction. […]

[8] = test system: NDM-1 Escherichia coli; assay: Nutrient preference assay (nutrient mixture); format: cell-based; details: M9 with […] of each nutrient, up to 24 hours
Experimental: as §1, §4

[9] = test system: NDM-1 Klebsiella pneumoniae; assay: Nutrient preference assay (nutrient mixture); format: cell-based; details: M9 with […] of each nutrient, up to 24 hours
Experimental: as §1, §4

[10] = test system: vancomycin-resistant E. faecium; assay: VRE nutrient utilization protocol: carbon sources; format: cell-based, Enterococcus faecium; details: aerobic; VRE minimal medium
Experimental: (§5) VRE minimal media consists of potassium phosphate monobasic (4 g/L), potassium phosphate dibasic (14 g/L), sodium citrate (1 g/L), magnesium sulphate (0.2 g/L), ammonium sulphate (2 g/L), adenosine (0.04 g/L), thymine (0.04 g/L), Kao and Michayluk vitamin solution [Sigma, K3129, 50× Stock](5×), glucose (1 g/L) and amino acid solution [Sigma, R7131, RPMI-1640, 50×](25×). If the study was performed under anaerobic conditions, fumarate (5.2 g/L) was added to increase growth of VRE strains. Carbon-free minimal media was prepared by leaving out glucose while nitrogen-free minimal media was prepared without the amino acid solution. Media was filter sterilized with a 0.22 micron filter and used immediately aerobically or degassed overnight if used anaerobically.
(§6) VRE strains were grown on R2A overnight before the cells were suspended in 0.9% saline to an OD of 0.38 (λ=595 nm). A 10% dilution of the cell suspension was prepared using VRE minimal media to achieve a final well OD of […] (λ=595 nm) greater than the sterile media OD. Both carbon and nitrogen source utilization were evaluated by adding the inoculated media and a filter-sterilised nutrient source solution into a well in a 1:1 ration to a final volume of 100 μL in aerobic tests and 200 μL in anaerobic tests. Carbon sources were tested individually and compared to a carbon-free control. To test nitrogen source utilization, a nitrogen source solution was prepared containing L-alanine (2 g/L), L-arginine (2.5 g/L, L-asparagine (0.71 g/L), L-aspartate (0.25 g/L), L-cysteine (0.625 g/L), L-glutamate (0.25 g/L), L-Glycine (0.125 g/L), L-histidine (0.1875 g/L), L-isoleucine (0.625 g/L), L-leucine (0.625 g/L), L-lysine HCl (0.5 g/L), L-methionine (0.1875 g/L), L-phenylalanine (0.1875 g/L), L-proline (0.25 g/L), L-serine (0.375 g/L), L-threonine (0.25 g/L), L-tryptophan (0.0625 g/L), L-tyrosine (0.29 g/L), L-valine (0.25 g/L), N-acetylglucosamine (2 g/L), and uracil (2.5 g/L). To test the strains' ability to utilize individual nitrogen sources, separate solutions were prepared eliminating one nitrogen source each. The change in growth compared to the complete nitrogen source solution control was used to determine nitrogen utilization. All carbon and nitrogen sources were tested in a technical triplicate for each biological replicate. Aerobic plates were incubated with a plate seal while anaerobic plates were not. The aerobic plate reader was set to read the plate (λ=595 nm, 37° C., 22 flashes per well, orbital shaking of 100 rpm for 15 s prior to each read) every 15 minutes for 24 hours. The anaerobic plate reader read the plate (λ=595 nm, 37° C., stationary) every 15 minutes for 24 hours.

[11] = test system: vancomycin-resistant E. faecalis; assay: VRE nutrient utilization protocol: nitrogen sources, leave-one-out; format: cell-based, Enterococcus faecalis; details: aerobic; leave-one-out from nitrogen source mixture in minimal medium
Experimental: as §5, §6

[12] = test system: vancomycin-resistant E. faecium; assay: as above; format: cell-based, Enterococcus faecium; details: aerobic; leave-one-out from nitrogen source mixture in minimal medium
Experimental: as §5, §6

| Compound | Use as sole carbon source to support E. cloacae growth ([1]; aerobic) | Use as sole carbon source to support E. coli growth ([2]; aerobic) | Use as sole carbon source to support K. pneumoniae growth ([3]; aerobic) | Use as sole nitrogen source to support E. cloacae growth [4] | Use as sole nitrogen source to support E. coli growth [5] | Use as sole nitrogen source to support K. pneumoniae growth [6] | Utilisation of nutrient by E. cloacae from nutrient mixture (1H-NMR) ([7]; anaerobic) | Utilisation of nutrient by E. coli from nutrient mixture (1H-NMR) ([8]; anaerobic) | Utilisation of nutrient by K. pneumoniae from nutrient mixture (1H-NMR) ([9]; anaerobic) | Use as sole carbon source to support E. cloacae growth ([1]; anaerobic) | Use as sole carbon source to support E. coli growth ([2]; anaerobic) | Use as sole carbon source to support K. pneumoniae growth ([3]; anaerobic) | Use as sole carbon source to support E. faecium growth [10] | Utilisation of nutrient by E. cloacae from nutrient mixture (1H-NMR) ([7]; aerobic) | Utilisation of nutrient by E. coli from nutrient mixture (1H-NMR) ([8]; aerobic) | Utilisation of nutrient by K. pneumoniae from nutrient mixture (1H-NMR) ([9]; aerobic) | Use as nitrogen source to support E. faecalis growth [11] | Use as nitrogen source to support E. faecium growth [12] |
| --- | --- | --- | --- | --- | --- | --- | --- | --- | --- | --- | --- | --- | --- | --- | --- | --- | --- | --- |
| C[C@H](N)C(=O)O [alanine, L-alanine] | able to grow | able to grow | able to grow | able to grow | able to grow | able to grow | not utilised | not utilised | not utilised | – | – | – | – | – | – | – | – | – |
| O=C[C@H](O)[C@@H](O)[C@@H](O)CO [arabinose, L-arabinose] | – | – | – | – | – | – | – | – | – | could use | could use | could use | could use | – | – | – | – | – |
| N[C@@H](CCC(=O)O)C(=O)O [glutamate, L-glutamate] | able to grow | – | able to grow | able to grow | able to grow | able to grow | – | – | – | – | – | – | – | moderate utilisation | moderate utilisation | moderate utilisation | could use | could use |
| NCCCC[C@H](N)C(=O)O [lysine, L-lysine] | – | – | – | able to grow | able to grow | able to grow | produced low levels | high utilisation | high utilisation | – | – | – | – | produced low levels | moderate utilisation | high utilisation | could use | could use |
| N[C@@H](Cc1c[nH]c2ccccc12)C(=O)O [tryptophan, L-tryptophan] | – | – | – | – | able to grow | – | not utilised | moderate utilisation | not utilised | – | – | – | could use | not utilised | high utilisation | not utilised | could use | could use |
| O=C[C@H](O)[C@@H](O)[C@H](O)CO [xylose, D-xylose] | – | – | – | – | – | – | – | – | – | could use | could use | could use | – | – | – | – | – | – |
